Assay results from ChEMBL document CHEMBL3217567, “Differential activation of soluble guanylate cyclase by a series of aryl disulfanyl dinitrate esters” (Medchemcomm, 2014).

Columns and labels:
[1] = molecular target: Soluble guanylate cyclase (Homo sapiens) (UniProt Q02153+O75343+P33402+Q02108); experiment: Activation of soluble guanylate cyclase (unknown origin) assessed as apparent initial rate of oxidation of oxyhemoglobin in presence of cysteine relative to GTN; format: protein-complex assay
Rattus norvegicus [2] = organism: Rattus norvegicus; experiment: Activation of Sprague-Dawley rat soluble guanylate cyclase after 10 mins in presence of cysteine relative to GTN
Rattus norvegicus [3] = organism: Rattus norvegicus; experiment: (§1) Activation of Sprague-Dawley rat soluble guanylate cyclase after 10 mins in presence of cysteine
[4] = as §1
Rattus norvegicus [5] = organism: Rattus norvegicus; experiment: Activation of Sprague-Dawley rat soluble guanylate cyclase after 10 mins relative to GTN
[6] = Activation of Sprague-Dawley rat soluble guanylate cyclase after 10 mins

SMILES | Ratio [1] | Emax (Rattus norvegicus [2]) [%] | Activity (Rattus norvegicus [3]) | EC50 [4] [µM] | Efficacy (Rattus norvegicus [5]) [%] | EC50 [6] [µM]
COc1ccc(SSCC(CO[N+](=O)[O-])O[N+](=O)[O-])cc1 (stereo not drawn) | 2 | 245 | Dose-dependent effect | – | – | –
O=[N+]([O-])OCC(CSSc1ccc(Cl)cc1)O[N+](=O)[O-] (stereo not drawn) | – | 195 | Dose-dependent effect | – | – | –
O=[N+]([O-])OCC(CSSc1ccc(F)cc1)O[N+](=O)[O-] (stereo not drawn) | – | 192 | Dose-dependent effect | – | – | –
O=[N+]([O-])OCC(CO[N+](=O)[O-])O[N+](=O)[O-] [NITROGLYCERIN] | – | – | – | 200 | – | –
O=[N+]([O-])OCC(CSSc1ccccc1)O[N+](=O)[O-] (stereo not drawn) | – | 201 | Dose-dependent effect | – | – | –
O=[N+]([O-])OCC(CSSc1ccc(Br)cc1)O[N+](=O)[O-] (stereo not drawn) | – | 218 | Dose-dependent effect | – | 60 | 40
Cc1ccc(SSCC(CO[N+](=O)[O-])O[N+](=O)[O-])cc1 (stereo not drawn) | – | 279 | Dose-dependent effect | – | 114 | 170
